SMILES strings stand for the structures. Counter-ions that a name gives are not always drawn.

Holding throughout (settings): 24 h
Test [1] has as its system NHEK immortalized keratinocytes.
For test [2], the system named is NKTC primary neonatal keratinocytes.
In test [3] the test system is NHEK immortalized keratinocytes. Briefly: IC50 cell viability (CellTiter-Glo). (In ATP-based viability assays light output follows the ATP content of the culture.)
Test [4] deals with NKTC primary neonatal keratinocytes. Nature of the test: IC50 cell viability (CellTiter-Glo).

Turning to `Oc1c(Cl)c(Cl)c(Cl)c(Cl)c1Cl` [Pentachlorophenol], the “IC50 cell viability (WST-8)” value in test [1] turned out to be 0.12 µM; in test [2], 1.18 µM. Moreover, the IC50 cell viability was determined as 0.51 µM in test [3] and 4.23 µM in test [4].

In the case of `CC(C)(C)c1cc(O)ccc1O` [tert-Butylhydroquinone], the “IC50 cell viability (WST-8)” value in test [1] is greater than 88 µM. Moreover, the IC50 cell viability in test [3] came to 77.7 µM; in test [4], 58.1 µM.

With `CNc1ccc(O)cc1` [p-Methylaminophenol sulfate], the “IC50 cell viability (WST-8)” value came to 8.53 µM in test [1] and 13.9 µM in test [2]. In addition, the IC50 cell viability was 6.78 µM in test [3] and 24.3 µM in test [4].

In turn, `CCN(CC)c1ccc2c(-c3ccccc3C(=O)O)c3ccc(=[N+](CC)CC)cc-3oc2c1` [Rhodamine B] had an IC50 cell viability in test [3] of 42.8 µM.

Turning to `C=CC(=O)OCCO` [2-Hydroxyethyl acrylate], in test [1], the “IC50 cell viability (WST-8)” value turned out to be 17.4 µM. The IC50 cell viability in test [3] amounted to 35.1 µM.

For the compound `C=C/C=C\CC1=C(C)[C@@H](OC(=O)[C@@H]2[C@@H](/C=C(\C)C(=O)OC)C2(C)C)CC1=O.C=C/C=C\CC1=C(C)[C@@H](OC(=O)[C@@H]2[C@@H](C=C(C)C)C2(C)C)CC1=O` [Pyrethrins], the “IC50 cell viability (WST-8)” value in test [1] worked out at 34.8 µM.

For `[K+].[K+].[O]=[Cr](=[O])([O-])[O][Cr](=[O])(=[O])[O-]` [Potassium dichromate], the “IC50 cell viability (WST-8)” value in test [1] turned out to be 1.97 µM; in test [2], 2.3 µM. In addition, the values for the IC50 cell viability in test [3] and in test [4] were 1.66 µM and 2.53 µM, respectively.

Regarding `CC1(C)CNC(=NN=C(/C=C/c2ccc(C(F)(F)F)cc2)/C=C/c2ccc(C(F)(F)F)cc2)NC1` [Hydramethylnon], the “IC50 cell viability (WST-8)” value came to 27 µM in test [1] and 51.3 µM in test [2]. Moreover, the results for the IC50 cell viability in test [3] and in test [4] were 17 µM and 38.9 µM, respectively.

As for `C=CC(=O)OCC(CC)(COC(=O)C=C)COC(=O)C=C` [Trimethylolpropane triacrylate], the “IC50 cell viability (WST-8)” value in test [1] and in test [2] was 24.9 µM throughout. Besides, the IC50 cell viability in test [3] amounted to 24.9 µM; in test [4] it was 20.6 µM.

For the compound `Oc1cc(Cl)ccc1Oc1ccc(Cl)cc1Cl` [Triclosan], the “IC50 cell viability (WST-8)” value in test [1] was greater than 88 µM; in test [2], 87.4 µM. Also, the IC50 cell viability in test [3] is 55.1 µM; in test [4] it was greater than 88 µM.

In the case of `CN=C1C=CC(=C(c2ccc(N(C)C)cc2)c2ccc(N(C)C)cc2)C=C1` [Methyl Violet], the “IC50 cell viability (WST-8)” value in test [1] was determined as 0.51 µM. This compound also showed an IC50 cell viability in test [3] of 0.64 µM.

Consider `CCCCCCCCCCCCc1ccc(S(=O)(=O)O)cc1` [Dodecylbenzenesulfonic acid], for which the entries for the “IC50 cell viability (WST-8)” value in test [1] and in test [2] were 29.5 µM and 23 µM, respectively. Also, the IC50 cell viability in test [3] was 25.8 µM; in test [4], 29.9 µM.

Take `CC(=O)N1CCN(c2ccc(OCC3COC(Cn4ccnc4)(c4ccc(Cl)cc4Cl)O3)cc2)CC1` (configuration not stated) [Ketoconazole]: in test [1], the “IC50 cell viability (WST-8)” value worked out at 14 µM. Moreover, the IC50 cell viability in test [3] turned out to be 26.4 µM.

Turning to `CC(=O)[O][Hg][c]1ccccc1` [Phenylmercuric acetate], the figures for the “IC50 cell viability (WST-8)” value in test [1] and in test [2] were 0.01 µM and 0.38 µM, respectively. The values for the IC50 cell viability in test [3] and in test [4] were 0.06 µM and 0.37 µM, respectively.

For the compound `C=CC(=O)OCCCCCCCC(C)C` [Isodecyl acrylate], in test [1], the “IC50 cell viability (WST-8)” value is 1.54 µM. Further, the IC50 cell viability in test [3] worked out at 3.55 µM.

In the case of `CCCCC(CC)COC(=O)C(C#N)=C(c1ccccc1)c1ccccc1` (configuration not stated) [Octocrylene], the “IC50 cell viability (WST-8)” value in test [1] came to 9.8 µM. This compound displayed an IC50 cell viability in test [3] of 16.6 µM.

In the case of `O=c1c(-c2ccccc2)c1-c1ccccc1` [Diphenylcyclopropenone], the “IC50 cell viability (WST-8)” value in test [1] is 36.6 µM; in test [2] it was 5.47 µM. The IC50 cell viability in test [3] is 30.8 µM; in test [4], 5.69 µM.

For the compound `CCCCNC(=O)OCC#CI` [3-Iodo-2-propynyl-N-butylcarbamate], the “IC50 cell viability (WST-8)” value in test [1] is greater than 88 µM. The IC50 cell viability in test [3] was 76.7 µM.

As for `CCCCCCCCCCCCN1CCCC1=O` [1-Dodecyl-2-pyrrolidinone], the “IC50 cell viability (WST-8)” value in test [1] was determined as 15.8 µM. The IC50 cell viability in test [3] worked out at 18.4 µM; in test [4], 29.1 µM.

The compound `O=C1C=CC(=C(c2ccc(O)cc2)c2ccccc2S(=O)(=O)O)C=C1` [Phenol Red sodium salt] registered an IC50 cell viability in test [3] of 79.9 µM.

With `O=C(c1ccccc1)c1ccc(O)cc1O` [2,4-Dihydroxybenzophenone], the “IC50 cell viability (WST-8)” value in test [1] was 44.4 µM. Besides, in test [3], the IC50 cell viability was found to be 58.1 µM.

As to `CCCCCCCCCCCCOC(=O)c1cc(O)c(O)c(O)c1` [Dodecyl gallate], the “IC50 cell viability (WST-8)” value in test [1] came out at 23.5 µM. Also, the IC50 cell viability in test [3] came to 21 µM.

On to `COc1ccc(C(C)=O)cc1` [4'-Methoxyacetophenone], for which the “IC50 cell viability (WST-8)” value in test [1] came to 53.4 µM. In test [3], this compound gave an IC50 cell viability of 55.5 µM.

The compound `Oc1ccc(O)cc1` [Hydroquinone] showed an IC50 cell viability in test [3] of 39.1 µM.

For `CCCCCCCCCCCCCCCCOCCOCCOCCOCCOCCOCCOCCOCCOCCOCCOCCOCCOCCOCCOCCOCCOCCOCCOCCOCCO` [Polyethylene glycol (20) hexadecyl ether], the “IC50 cell viability (WST-8)” value in test [1] is 13.3 µM.

`CCCCN(CCC(=O)OCC)C(C)=O` [Ethyl 3-(N-butylacetamido)propionate]: the IC50 cell viability in test [3] came out at 21 µM.

Turning to `O=C(Nc1ccc(Cl)cc1)Nc1ccc(Cl)c(Cl)c1` [Triclocarban], the “IC50 cell viability (WST-8)” value in test [1] was 2.31 µM. Also, the IC50 cell viability in test [3] was found to be 2.7 µM; in test [4] it was 6.78 µM.

As for `C[C@H](O)CCO` [1,3-Butanediol], the “IC50 cell viability (WST-8)” value in test [1] turned out to be 5.52 µM. Besides, the IC50 cell viability in test [3] was 13.5 µM.

As to `C=C1CC[C@H](O)C/C1=C/C=C1\CCC[C@]2(C)[C@@H]([C@H](C)CCCC(C)C)CC[C@@H]12` [Vitamin D3], in test [1], the “IC50 cell viability (WST-8)” value was 12.7 µM. For the same compound, in test [3], the IC50 cell viability stood at 13.7 µM.

In test [3], `CC(C)(C)C(=O)C(Oc1ccc(Cl)cc1)n1ccnc1` (configuration not stated) [Climbazole] had an IC50 cell viability of 0.42 µM.

Take `O=C1OC2(c3cc(Br)c(O)c(Br)c3Oc3c2cc(Br)c(O)c3Br)c2c(Cl)c(Cl)c(Cl)c(Cl)c21` [D&C Red 27]: the “IC50 cell viability (WST-8)” value in test [2] was found to be 22.3 µM. Moreover, the IC50 cell viability in test [3] amounted to 44.9 µM; in test [4], 28.1 µM.

In the case of `CCN(CC)c1ccc(C(=C2C=CC(=[N+](CC)CC)C=C2)c2ccc(S(=O)(=O)O)cc2S(=O)(=O)[O-])cc1` [Sulfan blue], in test [3], the IC50 cell viability came to 41.3 µM.

In the case of `CC1=CC(=C(c2ccc(N)cc2)c2ccc(N)cc2)C=CC1=N` [C.I. Basic Violet 14], in test [3], the IC50 cell viability turned out to be 1.16 µM.

With `O=CCc1ccccc1` [Phenylacetaldehyde], the “IC50 cell viability (WST-8)” value in test [1] was greater than 88 µM. In test [3], this compound returned an IC50 cell viability greater than 88 µM.

Turning to `Cn1sccc1=O` [2-Methyl-4-isothiazolin-3-one hydrochloride], the “IC50 cell viability (WST-8)” value in test [1] was determined as 32.2 µM. Further, the IC50 cell viability in test [3] was found to be 39.9 µM.

With `COC(C)(C)CCC[C@H](C)C/C=C/C(C)=C/C(=O)OC(C)C` [S-Methoprene], the “IC50 cell viability (WST-8)” value in test [1] stood at 82.5 µM. Besides, the IC50 cell viability in test [3] amounted to 82.5 µM.

`CC(=O)OCC(C)OC(C)=O` (configuration not stated) [Propylene glycol diacetate]: the “IC50 cell viability (WST-8)” value in test [1] is 27.7 µM. Further, the IC50 cell viability in test [3] turned out to be 35.7 µM.

For the origin of these results see the supplement of paper PMC7046801.
